Laboratory results as given in the supplement of paper PMC10307832.

How the values were obtained:
Assay in all cases: relative viability (nuclei count vs DMSO), 5 days (fraction); higher = more cells survive
Cabozantinib + Lapatinib = compound: COc1cc2nccc(Oc3ccc(NC(=O)C4(C(=O)Nc5ccc(F)cc5)CC4)cc3)c2cc1OC [Cabozantinib] + CS(=O)(=O)CCNCc1ccc(-c2ccc3ncnc(Nc4ccc(OCc5cccc(F)c5)c(Cl)c4)c3c2)o1 [Lapatinib] (partner 2 µM)
Outline: (§1)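 Relative viability is defined as nuclei in treated wells over nuclei in vehicle wells. Duplicate plates were run and medians reported. Lung cancer cell lines in 1536-well plates were dosed by pin tool one day after seeding, with one drug or with a fixed anchor-drug dose plus five library-drug doses (not always all listed) in √10 steps, and nuclei were counted after 5 days.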

Kobe2602 + Pictilisib = compound: C1=CC(=CC=C1NC(=S)NNC2=C(C=C(C=C2[N+](=O)[O-])C(F)(F)F)[N+](=O)[O-])F [Kobe2602] + CS(=O)(=O)N1CCN(Cc2cc3nc(-c4cccc5[nH]ncc45)nc(N4CCOCC4)c3s2)CC1 [Pictilisib] (partner 1 µM)
Outline: as §1

Zosuquidar + Linsitinib = compound: O[C@@H](COc1cccc2ncccc12)CN1CCN([C@@H]2c3ccccc3[C@@H]3[C@H](c4ccccc42)C3(F)F)CC1 [Zosuquidar] + C[C@]1(O)C[C@@H](c2nc(-c3ccc4ccc(-c5ccccc5)nc4c3)c3c(N)nccn32)C1 [Linsitinib] (partner 1 µM)
Outline: as §1

Zosuquidar + Navitoclax = compound: O[C@@H](COc1cccc2ncccc12)CN1CCN([C@@H]2c3ccccc3[C@@H]3[C@H](c4ccccc42)C3(F)F)CC1 [Zosuquidar] + CC1(C)CCC(c2ccc(Cl)cc2)=C(CN2CCN(c3ccc(C(=O)NS(=O)(=O)c4ccc(N[C@H](CCN5CCOCC5)CSc5ccccc5)c(S(=O)(=O)C(F)(F)F)c4)cc3)CC2)C1 [Navitoclax] (partner 0.5 µM)
Outline: as §1

Cell Line | relative viability (Cabozantinib + Lapatinib; first compound 0.02 µM) | relative viability (Cabozantinib + Lapatinib; first compound 0.06325 µM) | relative viability (Cabozantinib + Lapatinib; first compound 0.2 µM) | relative viability (Cabozantinib + Lapatinib; first compound 0.6325 µM) | relative viability (Cabozantinib + Lapatinib; first compound 2 µM) | relative viability (Kobe2602 + Pictilisib; first compound 0.2 µM) | relative viability (Kobe2602 + Pictilisib; first compound 0.6325 µM) | relative viability (Kobe2602 + Pictilisib; first compound 2 µM) | relative viability (Kobe2602 + Pictilisib; first compound 6.325 µM) | relative viability (Kobe2602 + Pictilisib; first compound 20 µM) | relative viability (Zosuquidar + Linsitinib; first compound 0.01 µM) | relative viability (Zosuquidar + Linsitinib; first compound 0.03162 µM) | relative viability (Zosuquidar + Linsitinib; first compound 0.1 µM) | relative viability (Zosuquidar + Linsitinib; first compound 0.3162 µM) | relative viability (Zosuquidar + Linsitinib; first compound 1 µM) | relative viability (Zosuquidar + Navitoclax; first compound 0.01 µM) | relative viability (Zosuquidar + Navitoclax; first compound 0.03162 µM) | relative viability (Zosuquidar + Navitoclax; first compound 0.1 µM) | relative viability (Zosuquidar + Navitoclax; first compound 0.3162 µM) | relative viability (Zosuquidar + Navitoclax; first compound 1 µM)
Calu-6 | 1.14 | 1.2 | 1.15 | 0.986 | 1.05 | 0.935 | 0.931 | 0.856 | 0.885 | 0.882 | 0.905 | 0.906 | 0.901 | 1.12 | 0.948 | 0.88 | 0.81 | 0.895 | 0.86 | 0.813
NCI-H460 | 1.19 | 1.13 | 0.958 | 0.97 | 0.981 | 0.392 | 0.373 | 0.463 | 0.365 | 0.403 | 0.764 | 0.802 | 0.711 | 0.759 | 0.768 | 1.07 | 1.3 | 1.24 | 1.14 | 1.23
NCI-H3122 | 1.01 | 1.01 | 1.02 | 1.03 | 0.954 | 0.575 | 0.599 | 0.522 | 0.583 | 0.702 | 1.01 | 0.939 | 0.938 | 1.07 | 0.959 | 1.04 | 0.98 | 1.05 | 1.02 | 1.01
HCC-44 | 1.09 | 1.12 | 1 | 1.11 | 1.04 | 0.63 | 0.623 | 0.684 | 1.54 | 0.662 | 0.663 | 0.684 | 0.65 | 0.669 | 0.696 | 0.959 | 1.02 | 1.04 | 1.02 | 1.17
HCC-78 | 0.458 | 0.922 | 0.348 | 0.305 | 0.286 | 0.246 | 0.255 | – | 0.212 | 0.211 | 0.67 | 0.556 | – | 0.486 | 0.542 | 1.04 | 0.768 | – | 0.839 | 0.736
COR-L23 | 1.04 | 1.14 | 0.947 | 1.12 | 0.878 | 0.766 | 0.695 | 0.811 | 0.837 | 0.832 | 0.98 | 0.959 | 0.945 | 1.03 | 0.902 | 0.999 | 1.14 | 1.11 | 1.02 | 1.02
NCI-H2009 | 1.06 | 0.959 | 1 | 0.965 | 0.941 | 0.843 | 0.877 | 0.874 | 0.876 | 0.897 | 1.22 | 1.25 | 1.15 | 1.16 | 1.2 | 1.19 | 1.12 | 1.13 | 1.1 | 1.14
NCI-H322M | 0.454 | 0.632 | – | 0.584 | 0.58 | 0.566 | 0.533 | 0.534 | 0.511 | 0.554 | 0.917 | 0.859 | 0.729 | 0.851 | 0.922 | 1.26 | 1.16 | 1.08 | 1.29 | 1.14
NCI-H2228 | 1.08 | 1.41 | 1.11 | 1 | 1.06 | 0.552 | 0.372 | 0.334 | 0.334 | 0.33 | 0.659 | 0.922 | 0.552 | 0.515 | 0.685 | 1.12 | 0.679 | 0.922 | 1.12 | 0.775
NCI-H358 | 0.449 | 0.418 | 0.454 | 0.358 | 0.369 | 0.301 | 0.324 | 0.332 | 0.39 | 0.318 | 0.768 | 0.726 | 0.715 | 0.735 | 0.75 | – | – | – | – | –
ABC-1 | 1.42 | 1.1 | 1.11 | 1.1 | 1.13 | 0.821 | 1.03 | 0.768 | 0.923 | 0.868 | 0.877 | 0.794 | 0.836 | 0.871 | 0.924 | – | – | – | – | –
NCI-H1563 | 0.946 | 0.966 | 1.04 | 0.844 | 1.21 | 0.648 | 0.697 | 0.616 | 0.684 | 0.653 | 1.22 | 1.29 | 1.13 | 1.2 | 1.26 | – | – | – | – | –
LCLC-103H | – | – | – | – | – | 0.596 | 0.696 | 0.62 | 0.618 | 0.638 | 1.13 | 1.17 | 1.05 | 0.912 | 1.03 | – | – | – | – | –
NCI-H661 | 0.46 | 0.467 | 0.502 | 0.449 | 0.343 | 0.461 | 0.368 | 0.419 | 0.353 | 0.52 | 0.614 | 0.653 | 0.447 | 0.704 | 0.69 | – | – | – | – | –
NCI-H1650 | 0.788 | 0.916 | 0.904 | 0.708 | 0.568 | 0.554 | 0.806 | 0.635 | 0.658 | 0.597 | – | – | – | – | – | 1.12 | 1.11 | 1.05 | 1.23 | 1.21
NCI-H441 | – | – | – | – | – | 0.46 | 0.495 | 0.538 | 0.483 | 0.409 | 0.505 | 0.594 | 0.498 | – | 0.478 | 0.748 | 0.496 | 0.615 | – | 0.59
NCI-H2170 | 0.263 | 0.302 | 0.16 | 0.353 | 0.27 | 0.325 | 0.327 | 0.329 | 0.324 | 0.344 | – | – | – | – | – | 0.651 | 0.626 | 0.557 | 0.673 | 0.571
NCI-H650 | 0.787 | 1.06 | 1.23 | 0.491 | 0.766 | 0.946 | 0.935 | 0.775 | 0.859 | 0.883 | 0.886 | 0.629 | – | 0.965 | 0.921 | – | – | – | – | –
